Like-named read-outs stand apart in the source and are kept apart here.

Format in all cases: cell-based
The subject of assay [1] is HIV-1 mutant virus K103N/Y181C. The assay is described as follows: Inhibition of replication of HIV-1 mutant virus K103N/Y181C. The conditions noted are these: Human immunodeficiency virus 1, read-out: Average IC50. The protocol: (§1) Elsulfavirine/Elpida/VM-1500 (la) is the prodrug of the active compound VM-1500A (1b), a Non-Nucleoside Reverse Transcriptase Inhibitor (NNRTI), which efficiently prevents HIV-1 HXB2 strain replication in the MT-4 cell line. […] 0.6±0.6 nM (G190A), 1.3±0.3 nM (L100I/K103N), and 1.3±0.4 nM (K103N/Y181C)

Another assay relates to HIV-1 mutant virus V106A. Kind of assay: Inhibition of replication of HIV-1 mutant virus V106A. The conditions noted are these: Human immunodeficiency virus 1, read-out: Average IC50. The protocol:
as §1

The test system of assay [2] is HIV-1 mutant virus L100I/K103N. Kind of assay: Inhibition of replication of HIV-1 mutant virus L100I/K103N. Conditions: Human immunodeficiency virus 1, read-out: Average IC50. The protocol: as §1
Another assay has as its system HIV-1 mutant virus G190A. The assay is described as follows: Inhibition of replication of HIV-1 mutant virus G190A. Conditions: Human immunodeficiency virus 1, read-out: Average IC50. The procedure:
as §1

In a further assay the test system is HIV-1 HXB2 strain. Kind of assay: Inhibition of HIV-1 HXB2 (wild-type) replication in MT-4 cell line. The procedure: as §1

For `N#Cc1cc(Cl)cc(Oc2c(Br)ccc(CC(=O)Nc3ccc(S(N)(=O)=O)cc3Cl)c2F)c1` [VM-1500A], the IC50 came out at 1.3 ± 0.4 nM in assay [1]; 1.2 ± 0.2 nM in the assay on HIV-1 mutant virus V106A; 1.3 ± 0.3 nM in assay [2]; 0.6 ± 0.6 nM in the assay with HIV-1 mutant virus G190A; 0.74 ng/mL in the assay on HIV-1 HXB2 strain (Human immunodeficiency virus 1, HXB2, MT4, as restated, converted to ng/ml, read-out: effective concentration (IC50)); 1.3 nM in the assay on HIV-1 HXB2 strain (Human immunodeficiency virus 1, HXB2, MT4, as restated, read-out: effective concentration (IC50)). Besides, the IC50 with HIV-1 HXB2 strain (Human immunodeficiency virus 1, MT4, wild-type HXB2 strain, MT-4 cell line, read-out: Average IC50) came out at 1.3 ± 0.4 nM.

The values above are taken from patent publication US20200129533A1, “PHARMACEUTICAL NANOSUSPENSION FOR THE THERAPY OF HIV INFECTION” (priority 2017, published 2020).
